# Measured values taken from US8168212B2, “Topical compositions comprising non-proteogenic amino acids and methods of treating skin” (Avon Products, Inc, priority 2007, dated 2012).
# Columns and labels:
# [1] = test system: β1 integrin; experiment: Whole cell ELISA of β1 integrin expression in human dermal fibroblasts; assay type: cell-based; conditions: 0.01% (w/v), 24 hours
# Protocol: Cell culture: Human dermal fibroblasts (Cascade Biologics) were cultured in growth medium (DMEM, 5% FBS, 1% L-Glut, and 1% antibiotics) overnight in 60 mm dishes at 3.5×10^5 cells/ml. Cells were treated with test active or vehicle control diluted in growth medium and incubated for 24 hours at 37° C.
# Whole cell ELISA: A B1 integrin kit from Chemicon International was used to assay the expression of B1 integrin on the cell surface following treatment with L-4 thiazolylalanine Medium was aspirated and plates were incubated at 37° C. with Cell Dissociation Buffer (provided with the kit) for 20-25 minutes, cells were centrifuged and resuspended in DMEM without supplements. 100 μl of the cell suspension was added to microtiter plates precoated with a murine anti-human β1 antibody (Chemicon International) that had been blocked for non-specific binding, and the plates incubated at 37° C. for 2 h. Adherent cells were quantitated by a cell staining kit (Chemicon International) according to manufacturer's instructions. Briefly, plates were washed in PBS and adherent cells stained by incubation for 5 min. at room temperature in the kit staining solution. […] Extraction buffer was then added to each well and the plate read at 570 nm on a spectrophotometer.
# The percent change in β1 integrin expression was calculated according to the formula: […]
# [2] = test system: calcineurin; experiment: Ex-vivo DiFMUP phosphatase assay of calcineurin activity; assay type: biochemical
# Protocol: Ex-vivo phosphatase assay: The modulation of calcineurin activity was monitored using a DiFMUP (6,8-difluoro-7-hydroxy-4-methylcoumarin phosphate) phosphatase assay well characterized in the art (see, e.g., Wegner et al., 2007, Methods Mol. Biol. 365:61-69, hereby incorporated by reference in its entirety). Dephosphorylation of DiFMUP leads to the formation of a highly fluorescent and stable product: […].
# Varying concentrations of L-4 Thiazolylalanine were added to a reaction buffer consisting of 50 mM Tris-HCL, pH 7.4, 0.0125% BSA, 0.1 mM CaCl, 400 U/ml calmodulin and 1 mM NiCl. The L-4 Thiazolylalanine/reaction buffer mixture was incubated at 37° C. for 30 min. DiFMU substrate was then added to a concentration of 10 μM, and the mixture returned to 37° C. incubation for a further 15 min. Fluorescence intensity was determined on a Spectrofluorometer.
# [3] = test system: LOXL1 regulatory elements (promoter region of the LOXL1 gene); experiment: LOXL1 promoter luciferase-reporter assay in transfected fibrosarcoma cells; assay type: cell-based, human; conditions: 1 μg/ml, 24 h, HTI080 cells, triplicate tests, p<0.05
# From the text: Vector construction, transfection and expression: The promoter region of the LOXL1 gene was isolated and cloned into the pGL3 Luciferase reporter plasmid (Promega) by standard methods known in the art and according to manufacturer's instructions. The LOXL1/pGL3 vector and the control vector pRL-NULL (Promega), containing no regulatory elements, were contransfected into the human fibrosarcoma line HTI080 using LipofectAMINE™ LTX Reagent (Invitrogen) according to manufacturer's directions.
# Transfected cells were allowed to recover for 24 h. The culture medium was then replaced with fresh medium containing various concentrations of L-4 Thiazolylalanine, and the transfected cells cultured for an additional 24 h.
# The cultures were subsequently washed with PBS and exposed to 100 μl cell lysis buffer/25 cm^2 culture area and gently shaken at room temperature for 30 min. The culture flasks containing the cell lysate were then immediately placed at −80° C.
# The activity of the reporter gene, firefly luciferase, was determined according to the manufacturer's instructions (Dual-Luciferase® Reporter Assay System, Promega). Briefly, the activity of the reporter gene is determined relative to that of a control vector encoding a second luciferase gene, that from Renilla reniformis. […]
# [4] = test system: CGRP; experiment: CGRP enzyme immunoassay of conditioned medium of PC-12 cells; assay type: cell-based, rat; conditions: 0.01%, 24 h, p<0.05
# Protocol: Cell culture: PC-12 cells were cultured in FK12 medium supplemented with nerve growth factor according to routine methods known in the art. PC12 cells are derived from a rat pheochromocytoma and terminally differentiate on exposure to nerve growth factor. Once the cells begin to differentiate, they express CGRP. Cultures were incubated in medium containing L-4 Thiazolylalanine for another 24 h. after which conditioned medium was collected and assayed for the presence of CGRP.
# CGRP Immunoassay: The presence of CGRP in the test samples was assayed by a sandwich ELISA immunoassay kit. Briefly, test and control samples of conditioned media are mixed with an anti-CGRP antibody conjugated to acetylcholinesterase (the “tracer antibody”), and the mixtures added to plates pre-coated with a monoclonal anti-CGRP antibody (binding to a different epitope of CGRP than the tracer antibody) that had been blocked for non-specific binding. The samples were incubated in the plates and the plates washed and the bound acetylcholinesterase activity determined using Ellman's reagent according to routine methods known in the art. The absorbance of the reagent is directly proportional to the concentration of CGRP in the sample.
# The percent change in CGRP expression due to L-4 Thiazolylalanine treatment was calculated according to the formula: […]
# [5] = test system: human skin; experiment: Human clinical patch study, histology of skin samples (Trichrome collagen and Alcian blue GAG staining); assay type: in vivo; conditions: 0.01% solution, topical semi-occlusive patch on outer forearm, 15 applications
# Protocol: In order to ascertain the effect of L-4 thiazolylalanine on collagen levels in human skin in vivo, a test was conducted on about 25 women aged 35-65 years. This human clinical study was approved by an Institutional Review Board and informed consent from the subjects was obtained prior to commencement of the study. The study was conducted in accordance with Title 21 of the Code of Federal Regulations, parts 50 and 56.
# A solution of 0.01% L-4 Thiazolylalanine was made up in a vehicle of Propylene glycol:Ethanol:Water at a ratio of 70:20:10. The experimental design of the test was as follows: Thiazolylalanine solution or the vehicle solution without thiazolylalanine was applied to the outer forearm on a 2×2 area of skin (@2 mg/cm2) under a semi-occlusive patch for 24 hours, after which the patch was removed and a fresh patch was applied. This was repeated for 5 days (Monday-Friday), then subjects were rested for the weekend. Patch application was continued in the same manner for the next two weeks, for a total of 15 applications. […] The intensity of the collagen and GAG staining was assessed visually under the microscope. […]
# [6] = test system: fibronectin; experiment: Competitive inhibition ELISA of fibronectin in conditioned media of human dermal fibroblasts; assay type: cell-based; conditions: 72 hours, P < 0.05
# Protocol: Cell culture: Human dermal fibroblasts (Cascade Biologics) were cultured in 12-well tissue culture plates in growth medium (DMEM, 5% FBS, 1% L-Glut, and 1% antibiotics) and incubated for 24 hours at 37° C. Cells treated with test active diluted in growth medium and incubated for 72 hours at 37° C., after which conditioned media was collected and assayed for the presence of fibronectin. […].
# Competitive inhibition ELISA: The presence of fibronectin in the test samples was assayed by a competitive ELISA kit (Chemicon International). Briefly, test and control samples of conditioned media were incubated with a HRP-conjugated, rabbit polyclonal anti-human fibronectin antibody at room temperature for about 10 minutes. The sample/antibody mixture was then transferred to a microtiter plate precoated with a standard amount of human fibronectin that had been blocked for non-specific binding. The plate was incubated for one hour at room temperature, followed by a PBS wash and detection of bound antibody (i.e., detection of bound HRP) by routine methods known in the art. The amount of bound antibody is inversely proportional to the amount of fibronectin in the sample.
# The percent change in fibronectin expression due to L-4 Thiazolylalanine treatment was calculated according to the formula: […]
smiles,measurement,setting,value
"N[C@@H](Cc1cscn1)C(=O)O [L-4 Thiazolylalanine, L-4-thiazolylalanine]",increase in the expression of B1 integrin,[1],225%
same,increase of calcineurin activity,[2]; 0.0001% weight/volume (lowest concentration tested),6%
same,decrease of calcineurin activity,[2]; 0.001% concentration,11%
same,decrease of calcineurin activity,[2]; 0.01% concentration,63%
same,"IC-50 (calcineurin activity), estimated",[2]; estimated,~0.064%
same,increase in expression of the reporter gene,[3],57%
same,increase in expression of CGRP,[4],69.93%
same,subjects with an increase in GAG staining relative to skin treated with the vehicle,[5]; 13/21 subjects,62%
same,subjects with increased collagen staining in treated sites versus vehicle treated site,[5]; 18/21 subjects,86%
same,Percent Change in fibronectin expression,[6]; Concentration 0.00001%,54.34% (P < 0.05)
same,Percent Change in fibronectin expression,[6]; Concentration 0.0001%,31.03% (P < 0.05)
same,Percent Change in fibronectin expression,[6]; Concentration 0.001%,36.11% (P < 0.05)
